The supplement of paper PMC10307832

What was measured:
Assay in all cases: relative viability (nuclei count vs DMSO), 5 days (fraction); higher = more cells survive
IU1-47 + Luminespib = compound: CC1=CC(=C(N1C2=CC=C(C=C2)Cl)C)C(=O)CN3CCCCC3 [IU1-47] + CCNC(=O)c1noc(-c2cc(C(C)C)c(O)cc2O)c1-c1ccc(CN2CCOCC2)cc1 [Luminespib] (partner 0.01 µM)
How it was run: (§1)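 Relative viability divides the nuclei count in treated wells by that in vehicle wells. Lung cancer cell lines were seeded in 1536-well plates, dosed by pin tool the next day, and fixed and stained after 5 days in one step with final 0.05% Triton X-100, 1% formaldehyde and 1 ug/ml Hoechst. Dosing was a single drug or a fixed anchor-drug dose plus five library-drug doses (not always all listed) in √10 steps, and values are medians of duplicate plates imaged at 4×.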

IU1-47 + Phenformin = compound: CC1=CC(=C(N1C2=CC=C(C=C2)Cl)C)C(=O)CN3CCCCC3 [IU1-47] + N=C(N)NC(=N)NCCc1ccccc1 [Phenformin] (partner 250 µM)
How it was run: as §1

IU1-47 + Decitabine = compound: CC1=CC(=C(N1C2=CC=C(C=C2)Cl)C)C(=O)CN3CCCCC3 [IU1-47] + Nc1ncn([C@H]2C[C@H](O)[C@@H](CO)O2)c(=O)n1 [Decitabine] (partner 2 µM)
How it was run: as §1

FG-4592 + Linsitinib = compound: Cc1nc(C(=O)NCC(=O)O)c(O)c2ccc(Oc3ccccc3)cc12 [FG-4592] + C[C@]1(O)C[C@@H](c2nc(-c3ccc4ccc(-c5ccccc5)nc4c3)c3c(N)nccn32)C1 [Linsitinib] (partner 1 µM)
How it was run: as §1

Row | Cell Line | relative viability (IU1-47 + Luminespib; first compound 0.08 µM) | relative viability (IU1-47 + Luminespib; first compound 0.253 µM) | relative viability (IU1-47 + Luminespib; first compound 0.8 µM) | relative viability (IU1-47 + Luminespib; first compound 8 µM) | relative viability (IU1-47 + Phenformin; first compound 0.08 µM) | relative viability (IU1-47 + Phenformin; first compound 0.253 µM) | relative viability (IU1-47 + Phenformin; first compound 0.8 µM) | relative viability (IU1-47 + Phenformin; first compound 8 µM) | relative viability (IU1-47 + Decitabine; first compound 0.08 µM) | relative viability (IU1-47 + Decitabine; first compound 0.253 µM) | relative viability (IU1-47 + Decitabine; first compound 0.8 µM) | relative viability (IU1-47 + Decitabine; first compound 8 µM) | relative viability (FG-4592 + Linsitinib; first compound 0.08 µM) | relative viability (FG-4592 + Linsitinib; first compound 0.253 µM) | relative viability (FG-4592 + Linsitinib; first compound 2.53 µM) | relative viability (FG-4592 + Linsitinib; first compound 8 µM) | relative viability (IU1-47 + Luminespib; first compound 2.53 µM) | relative viability (IU1-47 + Phenformin; first compound 2.53 µM) | relative viability (FG-4592 + Linsitinib; first compound 0.8 µM) | relative viability (IU1-47 + Decitabine; first compound 2.53 µM)
1 | NCI-H1355 | 0.773 | 0.721 | 0.735 | 0.64 | 0.432 | 0.501 | 0.441 | 0.398 | 0.364 | 0.342 | 0.348 | 0.349 | 0.87 | 0.778 | 0.843 | 0.736 |  |  |  | 
2 | H3255 | 1.09 | 1 | 0.757 | 0.888 | 0.426 | 0.358 | 0.294 | 0.352 | 0.696 | 0.681 | 0.689 | 0.453 | 0.963 | 0.868 | 1.07 | 0.959 | 0.41 | 0.365 | 0.896 | 
3 | NCI-H1993 | 0.857 | 0.888 | 0.804 | 0.716 | 0.488 | 0.493 | 0.516 | 0.498 | 0.602 | 0.641 | 0.628 | 0.537 | 0.808 | 0.646 | 0.728 | 0.706 | 0.868 | 0.506 | 0.713 | 0.687
4 | NCI-H1734 | 0.181 | 0.202 | 0.18 | 0.215 | 0.441 | 0.423 | 0.369 | 0.376 | 0.6 | 0.541 | 0.548 | 0.419 | 0.896 | 0.814 | 0.875 | 0.927 |  |  | 0.716 | 0.5
5 | HOP-62 | 0.957 | 0.964 | 1.04 | 1.06 | 0.756 | 0.792 | 0.719 | 0.543 | 0.233 | 0.218 | 0.224 | 0.208 | 0.947 | 1.03 | 1.03 | 0.931 | 0.925 | 0.675 | 0.921 | 0.247
6 | LOU-NH91 | 0.326 | 0.299 | 0.294 | 0.336 | 0.855 | 0.942 | 0.771 | 0.698 | 0.909 | 0.854 | 0.797 | 0.797 | 0.92 | 0.83 | 0.938 | 0.907 | 0.276 | 0.672 | 0.755 | 0.816
7 | PC-14 | 0.185 | 0.168 | 0.186 | 0.179 | 0.686 | 0.611 | 0.633 | 0.406 | 0.177 | 0.205 | 0.235 | 0.209 | 0.977 | 0.941 | 0.991 | 0.891 | 0.151 | 0.664 | 1 | 0.261
8 | NCI-H1437 | 1.2 | 1.1 | 1.21 | 1.1 | 0.337 | 0.272 | 0.25 | 0.297 | 0.573 | 0.513 | 0.658 | 0.547 | 0.995 | 0.976 | 0.95 | 0.786 | 1.11 | 0.341 | 0.99 | 0.63
9 | NCI-H460 | 0.0244 | 0.0322 | 0.0367 | 0.0295 | 0.599 | 0.536 | 0.614 | 0.313 | 0.536 | 0.494 | 0.563 | 0.579 | 0.708 | 0.665 | 0.766 | 0.748 | 0.0341 | 0.532 | 0.788 | 0.51
10 | NCI-H1666 | 1.08 | 1.02 | 0.938 | 0.854 | 0.609 | 0.527 | 0.539 | 0.544 | 0.802 | 0.714 | 0.718 | 0.784 | 0.781 | 0.884 | 0.831 | 0.677 | 0.942 | 0.584 | 0.769 | 0.738
11 | NCI-H1651 | 0.876 | 0.85 | 0.924 | 0.819 | 0.342 | 0.308 | 0.373 | 0.297 | 0.627 | 0.672 | 0.522 | 0.579 | 0.986 | 0.998 | 1.09 | 0.815 | 0.974 | 0.319 | 0.915 | 0.357
12 | NCI-H1755 | 0.273 | 0.465 | 0.325 | 0.451 | 0.684 | 0.665 | 0.698 | 0.662 | 0.712 | 0.694 | 0.653 | 0.766 | 0.993 | 0.961 | 1.04 | 1.06 | 0.479 | 0.613 | 0.963 | 0.797
